Source: patent US20230065158A1, “OXABICYCLOHEPTANES FOR TREATMENT OF SMALL CELL LUNG CANCER” (Lixte Biotechnology, Inc., priority 2021, published 2023)

Experiments:
PP2A = target: T1, PP2A (Homo sapiens, UniProt P67775); test: PP2A immunoprecipitation Ser/Thr phosphatase activity assay in treated H524 cells; type: cell-based; conditions: cantharidin 10 μM, 24 h
T1 construct: endogenous in cells; host or cells: H524 (human SCLC) cells
Experimental: FIGS. 1A-IL depict the effects of LB-100 on PP2A-A expression in SCLC tumors and cells. […] A Mann-Whitney U test was used for comparison between the normal and SCLC samples. FIG. 1B: IHC for PP2A was conducted on TMA tissue sections and images were captured at 4× or 20× using a 3D-Histech PANNORAMIC SCAN whole slide scanner (3D-Histech, Budapest, Hungary). […] TMAs were scored in normal (n=24) and tumor (n=79) cores on a scale from 0 (no staining/no protein expression) to 3+(strong staining/high protein expression). FIG. 1C: Summary bar graph of the average PP2A subunit staining. IHC staining intensity of normal and tumor cores. There was a statistically significant difference between normal and tumor tissue (p<0.001). FIG. 1D: In order to compare the expression of PP2A subunits A and C, cell lysates from seven SCLC cell lines and HBEC 3KT (non-malignant cell line) were subjected to western blotting. FIG. 1E: PP2A activity was determined using a serine/threonine phosphatase activity assay (Millipore) after 24 h exposure to cantharidin (10 μM) and LB-100 (5 μM). […] LB-100 alone or in combination with carboplatin inhibited proliferation and colony formation in SCLC cells. The Cell Counting Kit-8 assay detected cell H524 and H69 cell viability. […] FIGS. 1I-1K: Graphs depict the mean+SEM of percent viability for cells (n=3). […]

H526 cells = test: Cell Counting Kit-8 cytotoxicity, H526; conditions: Homo sapiens, NCI-H526, 72 h, read-out: Cytotoxicity IC50, H526
From the text: (§2) To determine specific cytotoxicity, we used Cell Counting Kit-8 (Dojindo Molecular Technologies, Rockville, Md.) as previously described (50).

H524 and H69 cells = test: Colony formation assay; type: cell-based; conditions: both cell lines; H524/H69: LB-100 2.5/20 μM, carboplatin 4/20 μM, etoposide 3/30 μM
Experimental: (§1) A Mann-Whitney U test was used for comparison between the normal and SCLC samples. FIG. 1B: IHC for PP2A was conducted on TMA tissue sections and images were captured at 4× or 20× using a 3D-Histech PANNORAMIC SCAN whole slide scanner (3D-Histech, Budapest, Hungary). […] TMAs were scored in normal (n=24) and tumor (n=79) cores on a scale from 0 (no staining/no protein expression) to 3+(strong staining/high protein expression). FIG. 1C: Summary bar graph of the average PP2A subunit staining. IHC staining intensity of normal and tumor cores. […] FIG. 1D: In order to compare the expression of PP2A subunits A and C, cell lysates from seven SCLC cell lines and HBEC 3KT (non-malignant cell line) were subjected to western blotting. FIG. 1E: PP2A activity was determined using a serine/threonine phosphatase activity assay (Millipore) after 24 h exposure to cantharidin (10 μM) and LB-100 (5 μM). […] The Cell Counting Kit-8 assay detected cell H524 and H69 cell viability. […] FIGS. 1I-1K: Graphs depict the mean+SEM of percent viability for cells (n=3). Colony formation assays were used to count the ability of H524 (FIGS. 11 and 1J) and H69 (FIGS. 1K and 1L) cells to form colonies. […] Representative images of colonies at 4× are shown under the graph (n=2).*p<0.05; **, p<0.01; *** p<0.001; ****, p<0.0001. Experiments were repeated in triplicate and representative data are shown.

H82 cells = test: Cell Counting Kit-8 cytotoxicity, H82; conditions: Homo sapiens, NCI-H82, 72 h, read-out: Cytotoxicity IC50, H82
From the text: as §2

H446 cells = test: Cell Counting Kit-8 cytotoxicity, H446; conditions: Homo sapiens, NCI-H446, 72 h, read-out: Cytotoxicity IC50, H446
From the text: as §2

H146 cells = test: Cell Counting Kit-8 cytotoxicity, H146; conditions: Homo sapiens, NCI-H146, 72 h, read-out: Cytotoxicity IC50, H146
From the text: as §2

H69 cells = test: Cell Counting Kit-8 cytotoxicity and drug combination, H69; conditions: Homo sapiens, NCI-H69, 72 h, read-out: Cytotoxicity IC50, H69; 72 hours
Experimental: as §1

H524 cells = test: Cell Counting Kit-8 cytotoxicity and drug combination, H524; conditions: Homo sapiens, NCI-H524, 72 h, read-out: Cytotoxicity IC50, H524; 72 hours
Experimental: as §1

H446 spheroids = H446 spheroids with drugs and T cells, live imaging; type: cell-based; conditions: without T cells, 48 h
Experimental: FIGS. 7A-7G depict results of T cells infiltration in H446 spheroids in the presence of LB100 and atezolizumab. FIG. 7A: Schematic of the effect of activated T cells on H446 spheroid degradation. At time point 0, single spheroids in 96 well plate were treated with LB-100, atezolizumab and T cells. Beads mimic in vivo T cell activation by two action signals CD3 and CD28. IncuCyte® Live-Cell Analysis System was used for the spheroidal imaging. Right panel presents spheroidal degeneration after 48 h incubation with LB-100, atezolizumab and activated T cells. FIGS. 7B and 7C: Automated image analysis provides metrics (0 h-μm, […]) and spheroid area (yellow-bright field mask). Column bars present mean values of spheroids at 0h. Representative images in bright field mask. […]
Cytotoxic CD8+ cells were isolated from whole blood, buffy coat of healthy donors following the protocol described in the Methods. […] Spheroid survival was monitored for 48 hours and their diameters were measured from phase contrast images. […]
H446 were generated as described in Materials and Methods (Monitoring of spheroid growth and cytotoxicity with the IncuCyte® Live-Cell Analysis System and IncuCyte® Cytotox reagent) following incubation with T cells and drugs. The effect of LB100 and atezolizumab in the presence of T cells was monitored with IncuCyte 3D Multi-Tumor Spheroid assay.

T1 sequence (P67775 whole entry): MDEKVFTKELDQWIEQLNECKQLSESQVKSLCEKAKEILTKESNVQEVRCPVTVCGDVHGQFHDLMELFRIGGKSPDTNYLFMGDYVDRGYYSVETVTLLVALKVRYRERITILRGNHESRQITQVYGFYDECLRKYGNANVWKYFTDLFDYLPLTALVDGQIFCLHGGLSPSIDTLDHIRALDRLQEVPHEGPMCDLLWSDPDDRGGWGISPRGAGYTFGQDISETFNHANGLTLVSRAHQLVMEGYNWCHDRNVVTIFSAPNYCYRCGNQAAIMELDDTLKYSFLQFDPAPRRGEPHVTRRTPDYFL
T1 sequence (P30153 whole entry partner): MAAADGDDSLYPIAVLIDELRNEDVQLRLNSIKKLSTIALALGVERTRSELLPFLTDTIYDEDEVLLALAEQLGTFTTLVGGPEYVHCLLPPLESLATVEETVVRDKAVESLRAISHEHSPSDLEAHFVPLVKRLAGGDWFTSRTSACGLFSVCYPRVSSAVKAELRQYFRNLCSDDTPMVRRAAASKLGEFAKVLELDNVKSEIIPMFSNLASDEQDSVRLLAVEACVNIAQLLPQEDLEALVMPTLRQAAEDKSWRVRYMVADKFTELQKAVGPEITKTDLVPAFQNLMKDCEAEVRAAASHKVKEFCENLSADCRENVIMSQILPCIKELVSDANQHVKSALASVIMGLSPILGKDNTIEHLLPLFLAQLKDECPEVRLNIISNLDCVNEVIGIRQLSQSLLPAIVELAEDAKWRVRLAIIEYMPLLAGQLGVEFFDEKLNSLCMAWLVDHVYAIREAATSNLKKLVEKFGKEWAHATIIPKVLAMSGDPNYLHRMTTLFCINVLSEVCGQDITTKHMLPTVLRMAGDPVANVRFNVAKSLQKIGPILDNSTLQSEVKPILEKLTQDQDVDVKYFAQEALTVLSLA

C[C@@]12C(=O)OC(=O)[C@]1(C)[C@H]1CC[C@@H]2O1 [cantharidin, reference compound]
PP2A activity reduced by (PP2A): ~90%

COc1cc([C@@H]2c3cc4c(cc3[C@@H](O[C@@H]3O[C@@H]5CO[C@@H](C)O[C@H]5[C@H](O)[C@H]3O)[C@H]3COC(=O)[C@H]23)OCO4)cc(OC)c1O [Etoposide]
IC50 (H526 cells): 2.8 µM | colony formation (H524 and H69 cells): significantly reduced colony formation | IC50 (H82 cells): 22.6 µM | IC50 (H446 cells): 3 µM | IC50 (H146 cells): 31.2 µM | IC50 (H69 cells): 30 µM | IC50 (H524 cells): 3 µM

atezolizumab: humanized immunoglobulin (Ig) G1 monoclonal antibody that targets PD-L1 [reference compound]
effect on spheroids (degeneration), drug alone (H446 spheroids): no effect
